Measured values as given in patent publication US9670202B2, “Substituted triazolopyridines” (BAYER PHARMA AKTIENGESELLSCHAFT, priority 2013, dated 2017).
Counter-ions that a name gives are not always drawn.

Molecular target: human kinase Mps-1 (Homo sapiens (Human), UniProt P33981)
Assay: Mps-1 kinase assay (TR-FRET, 10 μM ATP)
Assay type: biochemical
Conditions: N-terminally GST-tagged human full length recombinant Mps-1, read-out: Mps-1 Inhibition, IC50 (Assay with 10 μM ATP)
Method: The human kinase Mps-1 phosphorylates a biotinylated substrate peptide. Detection of the phosphorylated product is achieved by time-resolved fluorescence resonance energy transfer (TR-FRET) from Europium-labelled anti-phospho-Serine/Threonine antibody as donor to streptavidin labelled with cross-linked allophycocyanin (SA-XLent) as acceptor. Compounds are tested for their inhibition of the kinase activity.
N-terminally GST-tagged human full length recombinant Mps-1 kinase (purchased from Invitrogen, Karslruhe, Germany, cat. no PV4071) was used. As substrate for the kinase reaction a biotinylated peptide of the amino-acid sequence […]
The concentration of Mps-1 in the assay was adjusted to the activity of the enzyme lot and was chosen appropriate to have the assay in the linear range, typical enzyme concentrations were in the range of about 1 nM (final conc. in the 5 μl assay volume).
The resulting mixture was incubated 1 h at 22° C. to allow the binding of the phosphorylated peptide to the anti-phospho(Ser/Thr)-Europium-antibody. Subsequently the amount of phosphorylated substrate was evaluated by measurement of the resonance energy transfer from the Europium-labelled anti-phospho(Ser/Thr) antibody to the Streptavidin-XLent. Therefore, the fluorescence emissions at 620 nm and 665 nm after excitation at 350 nm was measured in a Viewlux TR-FRET reader (PerkinElmer LAS, Rodgau-Jügesheinn, Germany). The “blank-corrected normalized ratio” (a Viewlux specific readout, similar to the traditional ratio of the emissions at 665 nm and at 622 nm, in which blank and Eu-donor crosstalk are subtracted from the 665 nm signal before the ratio is calculated) was taken as the measure for the amount of phosphorylated substrate.

human kinase Mps-1, sequence (P33981 whole entry): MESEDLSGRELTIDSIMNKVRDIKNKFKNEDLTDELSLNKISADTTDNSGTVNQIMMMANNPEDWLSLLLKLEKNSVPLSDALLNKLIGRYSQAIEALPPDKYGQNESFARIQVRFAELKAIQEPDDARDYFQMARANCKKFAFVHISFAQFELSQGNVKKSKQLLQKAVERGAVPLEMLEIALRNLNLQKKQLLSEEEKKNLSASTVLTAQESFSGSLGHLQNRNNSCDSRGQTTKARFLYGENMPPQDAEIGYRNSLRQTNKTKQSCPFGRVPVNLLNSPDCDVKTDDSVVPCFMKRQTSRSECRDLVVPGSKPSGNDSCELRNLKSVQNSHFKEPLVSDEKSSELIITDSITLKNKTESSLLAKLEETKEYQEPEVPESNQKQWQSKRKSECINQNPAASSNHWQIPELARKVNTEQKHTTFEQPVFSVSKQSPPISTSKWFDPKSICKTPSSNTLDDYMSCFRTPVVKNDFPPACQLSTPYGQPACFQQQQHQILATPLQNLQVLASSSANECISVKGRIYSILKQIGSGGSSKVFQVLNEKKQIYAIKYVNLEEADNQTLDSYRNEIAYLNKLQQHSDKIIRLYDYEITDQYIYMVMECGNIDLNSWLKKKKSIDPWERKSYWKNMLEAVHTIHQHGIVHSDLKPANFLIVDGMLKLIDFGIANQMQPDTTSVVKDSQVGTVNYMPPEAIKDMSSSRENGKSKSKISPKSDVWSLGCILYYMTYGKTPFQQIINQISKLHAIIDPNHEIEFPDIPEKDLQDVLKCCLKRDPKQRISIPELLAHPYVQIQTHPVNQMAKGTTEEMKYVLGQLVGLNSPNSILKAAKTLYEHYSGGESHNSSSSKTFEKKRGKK

Row | IC50 | SMILES
1 | 3.1 nM | CCNC(=O)c1ccc(Nc2nc3ccc(N4CCN(C(=O)NCc5ccc(F)cc5)CC4)cn3n2)c(OCC)c1 [Example 01.01, 4-(2-{[2-ethoxy-4-(ethylcarbamoyl)phenyl]amino}[1,2,4]triazolo[1,5-a]-pyridin-6-yl)-N-(4-fluorobenzyl)piperazine-1-carboxamide]
2 | 5.6 nM | CC(C)(C)NC(=O)c1ccc(Nc2nc3ccc(N4CCN(C(=O)NCc5ccc(F)cc5)CC4)cn3n2)c(OCC(F)(F)F)c1 [Example 01.02, 4-(2-{[4-(tert-butylcarbamoyl)-2-(2,2,2-trifluoroethoxy)phenyl]amino}-[1,2,4]triazolo[1,5-a]pyridin-6-yl)-N-(4-fluorobenzyl)piperazine-1-carboxamide]
3 | 7.9 nM | CCN(CC)C(=O)c1ccc(Nc2nc3ccc(N4CCN(C(=O)NCc5ccc(F)cc5)CC4)cn3n2)c(OC)c1 [Example 01.03, 4-(2-{[4-(diethylcarbamoyl)-2-methoxyphenyl]amino}[1,2,4]triazolo[1,5-a]pyridin-6-yl)-N-(4-fluorobenzyl)piperazine-1-carboxamide]
4 | 2.6 nM | CCOc1cc(C(=O)N2CCOCC2)ccc1Nc1nc2ccc(N3CCN(C(=O)NCc4ccc(F)cc4)CC3)cn2n1 [Example 01.04, 4-(2-{[2-ethoxy-4-(morpholin-4-ylcarbonyl)phenyl]amino}[1,2,4]triazolo-[1,5-a]pyridin-6-yl)-N-(4-fluorobenzyl)piperazine-1-carboxamide]
5 | 9.7 nM | CCCOc1cc(C(=O)N(CC)CC)ccc1Nc1nc2ccc(N3CCN(C(=O)NCc4ccc(F)cc4)CC3)cn2n1 [Example 01.05, 4-(2-{[4-(diethylcarbamoyl)-2-propoxyphenyl]amino}[1,2,4]triazolo[1,5-a]pyridin-6-yl)-N-(4-fluorobenzyl)piperazine-1-carboxamide]
6 | 28.5 nM | CCN(CC)C(=O)c1ccc(Nc2nc3ccc(N4CCN(C(=O)NCc5ccc(F)cc5)CC4)cn3n2)c(OCC(C)C)c1 [Example 01.06, 4-(2-{[4-(diethylcarbamoyl)-2-(2-methylpropoxy)phenyl]amino}[1,2,4]-triazolo[1,5-a]pyridin-6-yl)-N-(4-fluorobenzyl)piperazine-1-carboxamide trifluoroacetate]
7 | 20.6 nM | CCN(CC)C(=O)c1ccc(Nc2nc3ccc(N4CCN(C(=O)NCc5ccc(F)cc5)CC4)cn3n2)c(OCC2CC2)c1 [Example 01.07, 4-(2-{[2-(cyclopropylmethoxy)-4-(diethylcarbamoyl)phenyl]amino}[1,2,4]-triazolo[1,5-a]pyridin-6-yl)-N-(4-fluorobenzyl)piperazine-1-carboxamide]
8 | 57 nM | CCN(CC)C(=O)c1ccc(Nc2nc3ccc(N4CCN(C(=O)NCc5ccc(F)cc5)CC4)cn3n2)c(OCCOC)c1 [Example 01.08, 4-(2-{[4-(diethylcarbamoyl)-2-(2-methoxyethoxy)phenyl]amino}[1,2,4]-triazolo[1,5-a]pyridin-6-yl)-N-(4-fluorobenzyl)piperazine-1-carboxamide]
9 | 1.7 nM | CCN(CC)C(=O)c1ccc(Nc2nc3ccc(N4CCN(C(=O)NCc5ccc(F)cc5)CC4)cn3n2)c(OCC(F)(F)F)c1 [Example 01.09, 4-(2-{[4-(diethylcarbamoyl)-2-(2,2,2-trifluoroethoxy)phenyl]amino}[1,2,4]-triazolo[1,5-a]pyridin-6-yl)-N-(4-fluorobenzyl)piperazine-1-carboxamide trifluoroacetate]
10 | 9.2 nM | COc1cc(N2CCN(C)CC2)ccc1Nc1nc2ccc(N3CCN(C(=O)NCc4ccc(F)cc4)CC3)cn2n1 [Example 01.10, N-(4-fluorobenzyl)-4-(2-{[2-methoxy-4-(4-methylpiperazin-1-yl)phenyl]-amino}[1,2,4]triazolo[1,5-a]pyridin-6-yl)piperazine-1-carboxamide]
11 | 45.6 nM | COc1cc(Nc2nc3ccc(N4CCN(C(=O)NCc5ccc(F)cc5)CC4)cn3n2)ccc1C(=O)N1CCOCC1 [Example 01.11, N-(4-fluorobenzyl)-4-(2-{[3-methoxy-4-(morpholin-4-ylcarbonyl)phenyl]-amino}[1,2,4]triazolo[1,5-a]pyridin-6-yl)piperazine-1-carboxamide]
12 | 18.6 nM | COc1ncccc1Nc1nc2ccc(N3CCN(C(=O)NCc4ccc(F)cc4)CC3)cn2n1 [Example 01.12, N-(4-fluorobenzyl)-4-{2-[(2-methoxypyridin-3-yl)amino][1,2,4]triazolo[1,5-a]pyridin-6-yl}piperazine-1-carboxamide]
13 | 8.9 nM | CCOc1ncccc1Nc1nc2ccc(N3CCN(C(=O)NCc4ccc(F)cc4)CC3)cn2n1 [Example 01.13, 4-{2-[(2-ethoxypyridin-3-yl)amino][1,2,4]triazolo[1,5-a]pyridin-6-yl}-N-(4-fluorobenzyl)piperazine-1-carboxamide]
14 | 8 nM | N#Cc1ccccc1Nc1nc2ccc(N3CCN(C(=O)NCc4ccc(F)cc4)CC3)cn2n1 [Example 01.14, 4-{2-[(2-cyanophenyl)amino][1,2,4]triazolo[1,5-a]pyridin-6-yl}-N-(4-fluoro-benzyl)piperazine-1-carboxamide]
15 | 32.2 nM | CCOc1cc(C(=O)N2CCOCC2)ccc1Nc1nc2ccc(N3CCC(C(=O)NCc4ccc(F)cc4)CC3)cn2n1 [Example 02.01, 1-(2-{[2-ethoxy-4-(morpholin-4-ylcarbonyl)phenyl]amino}[1,2,4]triazolo-[1,5-a]pyridin-6-yl)-N-(4-fluorobenzyl)piperidine-4-carboxamide]
16 | 68.8 nM | CCNC(=O)c1ccc(Nc2nc3ccc(N4CCC(C(=O)NCC5CC5)CC4)cn3n2)c(OCC)c1 [Example 03.01, N-(cyclopropylmethyl)-1-(2-{[2-ethoxy-4-(ethylcarbamoyl)phenyl]amino}-[1,2,4]triazolo[1,5-a]pyridin-6-yl)piperidine-4-carboxamide]
17 | 67.8 nM | CCOc1cc(C(=O)N2CCOCC2)ccc1Nc1nc2ccc(N3CCC(C(=O)NCC4CC4)CC3)cn2n1 [Example 03.02, N-(cyclopropylmethyl)-1-(2-{[2-ethoxy-4-(morpholin-4-ylcarbonyl)phenyl]-amino}[1,2,4]triazolo[1,5-a]pyridin-6-yl)piperidine-4-carboxamide]
18 | 7.1 nM | CCNC(=O)c1ccc(Nc2nc3ccc(N4CCC(NC(=O)Cc5ccc(F)cc5)CC4)cn3n2)c(OCC)c1 [Example 04.01, 3-ethoxy-N-ethyl-4-{[6-(4-{[(4-fluorophenyl)acetyl]amino}piperidin-1-yl)-[1,2,4]triazolo[1,5-a]pyridin-2-yl]amino}benzamide]
19 | 12.8 nM | CCOc1cc(C(=O)N2CCOCC2)ccc1Nc1nc2ccc(N3CCC(NC(=O)Cc4ccc(F)cc4)CC3)cn2n1 [Example 04.02, N-[1-(2-{[2-ethoxy-4-(morpholin-4-ylcarbonyl)phenyl]amino}[1,2,4]-triazolo[1,5-a]pyridin-6-yl)piperidin-4-yl]-2-(4-fluorophenyl)acetamide]
20 | 32.8 nM | CCOc1ncccc1Nc1nc2ccc(N3CCC(NC(=O)Cc4ccc(F)cc4)CC3)cn2n1 [Example 04.03, N-(1-{2-[(2-ethoxypyridin-3-yl)amino][1,2,4]triazolo[1,5-a]pyridin-6-yl}-piperidin-4-yl)-2-(4-fluorophenyl)acetamide]
21 | 46.9 nM | O=C(NCc1ccc(F)cc1)NC1CCN(c2ccc3nc(Nc4ccc(C(=O)N5CCOCC5)cc4OCC(F)(F)F)nn3c2)C1 (stereo not drawn) [Example 05.01, 1-(4-fluorobenzyl)-3-[1-(2-{[4-(morpholin-4-ylcarbonyl)-2-(2,2,2-trifluoroethoxy)phenyl]amino}[1,2,4]triazolo[1,5-a]pyridin-6-yl)pyrrolidin-3-yl]urea]
